Data as given in patent US10336748B2, “Methyoxy-substituted pyrrolopyridine modulators of RORC2 and methods of use thereof” (Pfizer Inc., priority 2015, dated 2019).

Key:
[1] = molecular target: T1, RORC2 ligand binding domain (6-His-RORC2 LBD) (Homo sapiens, UniProt P51449); assay: Co-activator recruitment by TR-FRET; assay type: biochemical; conditions: 6.3 nM RORC2 LBD, 200 nM SRC1-2 coactivator peptide, 3 hr room temperature
T1 construct: made in house; host or cells: E. coli
T1 sequence (P51449 269-508 limits assumed): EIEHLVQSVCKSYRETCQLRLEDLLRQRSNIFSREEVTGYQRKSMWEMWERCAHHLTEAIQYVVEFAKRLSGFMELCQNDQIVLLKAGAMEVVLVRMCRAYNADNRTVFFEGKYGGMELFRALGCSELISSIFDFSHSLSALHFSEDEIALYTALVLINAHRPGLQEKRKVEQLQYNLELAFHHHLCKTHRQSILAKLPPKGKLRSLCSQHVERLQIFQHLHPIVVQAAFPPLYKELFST
Description: The activity of compound of the invention can be determined by a co-activator recruitment by TR-FRET (time-resolved fluorescence resonance energy transfer) assay. In general, the assay is based on the interaction between N-terminally Six-Histidine-tagged-RORC2 ligand binding domain (6-His-RORC2 LBD), expressed in E. coli and purified by affinity chromatography, and biotin-coactivator peptide SRC1-2 (biotin-aminohexanoic acid-[…]-NH2; SEQ ID NO: 1) containing the LXXLL consensus domain which is responsible for receptor binding. This interaction is detected by addition of Europium labeled-anti-His antibody (Ex. 337 nm, Em. 620 nm, which binds to 6His) and Streptavidin-APC (Ex. 620 nm, Em. 665 nm, which binds to biotin). When receptor and coactivator are bound to each other, upon shining light at 337 nm on the sample, the Europium emits fluorescence that excites APC due to close proximity (FRET) and this signal is measured at 665 nm. Due to the long lasting fluorescence emission of Europium, the non-specific, short-lived fluorescence is time-resolved (TR) from the fluorescence of interest. Inhibitors of the interaction of receptor and coactivator peptide are detected by a decrease in TR-FRET signal.
Specifically, in one embodiment the aforementioned assay was performed as outlined below. The assay was carried out in black polystyrene. 384-well plates in a total assay volume of 50.5 μL. The assay buffer contained 50 mM TRIS-HCL pH 7.5, 1 mM NaCl, 2 mM MgCl2, 0.5 mg/mL bovine serum albumin, and 5 mM dithiothreitol. The final concentration of reagents was 6.3 nM RORC2 LBD, 200 nM SRC1-2, 50 nM streptavidin APC, 1 nM Europium-labeled anti-His antibody, and varying concentrations of compounds such that final concentration of DMSO is 1% (v/v). The assay steps were: (1) dispensing […] compound at 100× final concentration in DMSO (test wells) or DMSO only (control wells for no inhibition); and (2) dispensing 50 μL mixture of the other assay components including receptor (test wells) or excluding receptor (control wells for maximal inhibition).
Assay mixtures were incubated are room temperature for 3 hr and read in EnVision 2100 Multilabel Reader (PerkinElmer Life Sciences) at Excitation Filter 320, Emission Europium Filter 615, Emission APC Filter 665, Dichroic Mirror D400/D630.
TR-FRET signal was determined by calculating the ratio of 665 nm by 615 nm and […] values of compounds of the invention (Table 1) were determined by the non-linear regression analysis of dose response curves.

[2] = tested on: human Th17 cells; assay: IL-17 production from human Th17 cells; assay type: cell-based; conditions: 144 h; IL-17A in supernatant by ELISA (MSD) after 6 days, human CD4+ T cells, anti-CD3 + anti-CD28 + cytokine cocktail
Method: The activity of compound of the invention can be also be determined by an IL-17 production from human Th17 cells assay. In general, this assay measures blockade of IL-17 production, the signature cytokine of T helper 17 (Th17) cells, by compounds. Purified human CD4+ T cells are stimulated with anti-CD3+anti-CD28 and incubated with a cytokine cocktail that induce their differentiation into Th17 in the absence or presence of various concentrations of compound. After 6 days, IL-17A concentration is measured in the cell culture supernatant with an ELISA kit (MSD).
Preparation of human CD4+ T cells. CD4+ T cells were purified from buffy coats from healthy donors (obtained from Massachusetts General Hospital) by negative selection the following procedure: Mixing 25 mL of blood with 1 mL of Rosette Sep CD4+ T cell enrichment cocktail (StemCell Technologies) followed by application of a layer of 14 mL Ficoll Paque Plus (Amersham GE Healthcare) and subsequent centrifugation at 1200 g for 20 min at room temperature. The Ficoll layer was then harvested and washed with phosphate saline buffer containing 2% (v/v) fetal bovine serum and cells were resuspended with RPMI medium containing 10% (v/v) fetal bovine serum and 10% (v/v) DMSO, frozen and kept in LN2 until used.
On the first day of the assay, a vial containing 10^7 CD4+ T cells is thawed rapidly in 37° C. water bath, immediately transferred into 20 mL X-Vivo 15 medium (Lonza), is spun for 6 min at 300×g, the supernatant is discarded, and the resulting pellet is re-suspended at 10^6 cells/mL in […] fresh X-Vivo 15 medium, followed by storage overnight in a tissue culture vessel in a humidified chamber at 37° C. and 5% CO2. Serial dilutions of compounds of the invention are prepared at 10× final concentration in X-Vivo15 medium containing 3% (v/v) DMSO.
On the second day of the assay, a 384-well tissue culture plate was coated with 10 μg/mL anti-hCD3 (eBioscience) at 50 μL/well. After 2 hr at 37° C., the supernatant is discarded and the coated plates are kept in a sterile tissue culture hood.
Cytokine plus anti-CD28 cocktail is prepared by mixing 25 ng/mL hIL-6 (Peprotech), 5 ng/mL hTGFbeta1 (Peprotech), 12.5 ng/mL IL-1beta (Peprotech), 25 ng/mL hIL-21, 25 ng/mL hIL-23 (R&D Systems), and 1 ug/mL anti-hCD28 (eBioscience) in X-Vivo 15 medium. The cytokine plus anti-CD28 cocktail with CD4+ cells is prepared such that the cocktail is diluted 10-fold and cell density is 0.22×10^6/mL. The mixture is incubated 1 hr at 37° C.
90 μL (20,000 cells) dispensed per well in the anti-hCD3 coated plate prepared as noted above.
10 μL 10× compound is added per well (final DMSO=0.3%) from the compound plate that was previously prepared, followed by 6 days of incubation in a tissue culture vessel in a humidified chamber at 37° C. and 5% CO2.
On day six of the assay, production of IL-17A in 10 μL of the supernatant is determined by sandwich ELISA using 384w hIL17 MSD plates following the manufacturer's protocol. Measurement is carried out in a Sector Imager 6000 by the same manufacturer. Signal units from the instrument are converted to pg/mL using a calibration curve with known amounts of IL-17A. IC50 values of test compounds (Table 2) are determined by the non-linear regression analysis of dose response curves.

IC50 [1] [nM] | IC50 [2] [nM] | SMILES
23.2 | 112 | COc1c(NC(=O)c2cccc(C#N)c2)cnc2c1c([C@@H]1[C@@H]3CC[C@H]1CN(C(=O)C(C)C)C3)cn2C [Example 20, 3-cyano-N-(3-(3-isobutyryl-3-azabicyclo[3.2.1]octan-8-yl)-4-methoxy-1-methyl-1H-pyrrolo[2,3-b]pyridin-5-yl)benzamide]
13.3 | 22.3 | COc1c(NC(=O)c2cccc(C#N)c2)cnc2c1c(C1CCN(C(=O)[C@@H](C)C3CCCC3)CC1)cn2C [Example 19, (S)-3-cyano-N-(3-(1-(2-cyclopentylpropanoyl)piperidin-4-yl)-4-methoxy-1-methyl-1H-pyrrolo[2,3-b]pyridin-5-yl)benzamide]
9.4 | 23.1 | COc1c(NC(=O)c2cccc(C#N)c2)cnc2c1c([C@@H]1CCN(C(=O)[C@@H](C)C(C)(C)C)C(C)(C)C1)cn2C [Example 34, 3-cyano-N-(3-((R)-2,2-dimethyl-1-((S)-2,3,3-trimethylbutanoyl)piperidin-4-yl)-4-methoxy-1-methyl-1H-pyrrolo[2,3-b]pyridin-5-yl)benzamide]
6.2 | 21.2 | COc1c(NC(=O)c2cccc(C#N)c2)cnc2c1c([C@@H]1CCN(C(=O)C(C)C)C(C)(C)C1)cn2C [Example 28, (R)-3-cyano-N-(3-(1-isobutyryl-2,2-dimethylpiperidin-4-yl)-4-methoxy-1-methyl-1H-pyrrolo[2,3-b]pyridin-5-yl)benzamide]
 | 22.7 | COc1ccc(C(=O)Nc2cnc3c(c([C@@H]4[C@@H]5CC[C@H]4CN(C(=O)C4CCCC4)C5)cn3C)c2OC)cc1C#N [Example 22, 3-cyano-N-(3-((1R,5S,8r)-3-(cyclopentanecarbonyl)-3-azabicyclo[3.2.1]octan-8-yl)-4-methoxy-1-methyl-1H-pyrrolo[2,3-b]pyridin-5-yl)-4-methoxybenzamide]
14.2 | 82 | COc1c(NC(=O)c2cc(C#N)cc(CO)c2)cnc2c1c(C1CCN(C(=O)C3CCCC3)CC1)cn2C [Example 17, 3-cyano-N-(3-(1-(cyclopentanecarbonyl)piperidin-4-yl)-4-methoxy-1-methyl-1H-pyrrolo[2,3-b]pyridin-5-yl)-5-(hydroxymethyl)benzamide]
10.1 | 12 | COc1ccc(C(=O)Nc2cnc3c(c([C@@H]4CCN(C(=O)C5CCCC5)C[C@@H]4C)cn3C)c2OC)cc1C#N [Example 25, 3-cyano-N-(3-((3R,4R)-1-(cyclopentanecarbonyl)-3-methylpiperidin-4-yl)-4-methoxy-1-methyl-1H-pyrrolo[2,3-b]pyridin-5-yl)-4-methoxybenzamide]
10.2 | 25 | COc1c(NC(=O)c2cccc(C#N)c2)cnc2c1c(C1CCN(C(=O)C3CCCC3)C[C@@H]1C)cn2C (stereo partly drawn) [Example 24, 3-cyano-N-(3-((3R,4R)-1-(cyclopentanecarbonyl)-3-methylpiperdin-4-yl)-4-methoxy-1-methyl-1H-pyrrolo[2,3-b]pyridin-5-yl)benzamide]
17.8 | 50.7 | COc1c(NC(=O)c2ccc(C)c(C#N)c2)cnc2c1c(C1CCN(C(=O)C3CCCC3)CC1)cn2C [Example 11, 3-cyano-N-(3-(1-(cyclopentanecarbonyl)piperidin-4-yl)-4-methoxy-1-methyl-1H-pyrrolo[2,3-b]pyridin-5-yl)-4-methylbenzamide]
8.5 | 15.6 | COc1c(NC(=O)c2cccc(C#N)c2)cnc2c1c([C@@H]1CCN(C(=O)C3CC(C)(C)C3)C(C)(C)C1)cn2C [Example 33, (R)-3-cyano-N-(3-(1-(3,3-dimethylcyclobutane-1-carbonyl)-2,2-dimethylpiperidin-4-yl)-4-methoxy-1-methyl-1H-pyrrolo[2,3-b]pyridin-5-yl)benzamide]
4.6 | 6.4 | COc1ccc(C(=O)Nc2cnc3c(c(C4CCN(C(=O)[C@@H](C)C(C)(C)C)CC4)cn3C)c2OC)cc1C#N [Example 3, (S)-3-cyano-4-methoxy-N-(4-methoxy-1-methyl-3-(1-(2,3,3-trimethylbutanoyl)piperidin-4-yl)-1H-pyrrolo[2,3-b]pyridin-5-yl)benzamide]
7.1 | 6.5 | COc1c(NC(=O)c2cccc(C#N)c2)cnc2c1c(C1CCN(C(=O)[C@H](C)C3CCCC3)CC1)cn2C [Example 18, (R)-3-cyano-N-(3-(1-(2-cyclopentylpropanoyl)piperidin-4-yl)-4-methoxy-1-methyl-1H-pyrrolo[2,3-b]pyridin-5-yl)benzamide]
3.2 | 12.7 | COc1c(NC(=O)c2ccc(SC)c(C#N)c2)cnc2c1c(C1CCN(C(=O)[C@H](C)C(C)(C)C)CC1)cn2C [Example 35, (R)-3-cyano-N-(4-methoxy-1-methyl-3-(1-(2,3,3-trimethylbutanoyl)piperidin-4-yl)-1H-pyrrolo[2,3-b]pyridin-5-yl)-4-(methylthio)benzamide]
 | 21.3 | COc1c(NC(=O)c2cccc(C#N)c2)cnc2c1c([C@@H]1[C@@H]3CC[C@H]1CN(C(=O)[C@H](C)C(C)(C)C)C3)cn2C [Example 21, 3-cyano-N-(4-methoxy-1-methyl-3-((1R,5S,8R)-3-((R)-2,3,3-trimethylbutanoyl)-3-azabicyclo[3.2.1]octan-8-yl)-1H-pyrrolo[2,3-b]pyridin-5-yl)benzamide]
